Results: patent publication US8703768B2, “Nitrogen containing heteroaryl compounds” (Hoffmann-La Roche Inc., priority 2010, dated 2014)

What follows are compounds tested against human PDE10A (Homo sapiens (Human), UniProt Q9Y233) (assay: human PDE10A full length Scintillation Proximity Assay (SPA)). Details: 50 nM cGMP and 50 nM [3H]-cGMP, 20 minutes at room temperature; read-out: PDE10A inhibition IC50.
human PDE10A, sequence (Q9Y233 other isoform, or with tags, fused parts or gaps): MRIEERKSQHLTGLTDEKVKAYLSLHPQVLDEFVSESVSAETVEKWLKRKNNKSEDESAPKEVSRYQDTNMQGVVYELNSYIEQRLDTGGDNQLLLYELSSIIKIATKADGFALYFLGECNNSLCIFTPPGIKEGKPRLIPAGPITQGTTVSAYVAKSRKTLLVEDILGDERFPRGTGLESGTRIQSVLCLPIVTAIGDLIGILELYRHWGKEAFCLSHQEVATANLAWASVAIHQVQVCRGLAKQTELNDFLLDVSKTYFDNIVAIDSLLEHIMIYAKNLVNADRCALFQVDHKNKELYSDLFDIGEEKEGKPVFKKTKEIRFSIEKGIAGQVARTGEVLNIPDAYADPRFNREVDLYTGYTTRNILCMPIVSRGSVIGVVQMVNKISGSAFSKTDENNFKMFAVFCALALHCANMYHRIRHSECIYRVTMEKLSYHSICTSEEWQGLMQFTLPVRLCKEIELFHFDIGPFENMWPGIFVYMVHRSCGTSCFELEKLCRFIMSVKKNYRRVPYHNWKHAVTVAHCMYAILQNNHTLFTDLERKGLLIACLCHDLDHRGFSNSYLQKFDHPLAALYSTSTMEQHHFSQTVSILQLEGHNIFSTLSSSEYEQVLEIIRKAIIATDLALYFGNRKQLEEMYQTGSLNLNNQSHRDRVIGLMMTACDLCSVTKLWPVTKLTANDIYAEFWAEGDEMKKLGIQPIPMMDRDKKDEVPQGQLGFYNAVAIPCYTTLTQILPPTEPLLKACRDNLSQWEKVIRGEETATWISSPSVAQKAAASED
Format: biochemical
Summary of the method: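 Radiometric SPA read-out: after 20 min at room temperature with [^3H]-cGMP/cGMP substrate, zinc sulphate (18 mM) bead stop reagent added and counts read after 1 h. Non-specific signal defined without enzyme; full-length protein used.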
Work on CNC(=O)c1c(F)cc(F)cc1NC(=O)c1nc(C2CC2)cnc1Nc1cncnc1 [Example 299, 6-Cyclopropyl-3-(pyrimidin-5-ylamino)-pyrazine-2-carboxylic acid (3,5-difluoro-2-methylcarbamoyl-phenyl)-amide] yielded an IC50 of 0.3 nM.
With CC(C)(O)CNC(=O)c1cc(C(F)(F)F)ccc1NC(=O)c1nc(C2CC2)cnc1Nc1cncnc1 [Example 295, 6-Cyclopropyl-3-(pyrimidin-5-ylamino)-pyrazine-2-carboxylic acid [2-(2-hydroxy-2-methyl-propylcarbamoyl)-4-trifluoromethyl-phenyl]-amide] the IC50 was 2.3 nM.
Cn1cc(NC(=O)c2nc(C3CC3)ccc2Nc2cncnc2)c(C(=O)N2CCC2)n1 [Example 30, 6-Cyclopropyl-3-(pyrimidin-5-ylamino)-pyridine-2-carboxylic acid [3-(azetidine-1-carbonyl)-1-methyl-1H-pyrazol-4-yl]-amide] gave an IC50 of 34.2 nM.
CCN(C)C(=O)c1c(NC(=O)c2nc(C3CC3)cnc2Nc2cncnc2)cnn1C [Example 203, 6-Cyclopropyl-3-(pyrimidin-5-ylamino)-pyrazine-2-carboxylic acid [5-(ethyl-methyl-carbamoyl)-1-methyl-1H-pyrazol-4-yl]-amide] was tested, and the IC50 was 33.8 nM.
Cn1ncc(NC(=O)c2nc(C3CC3)cnc2Nc2cncnc2)c1C(=O)NCC(O)C(F)(F)F (centres unmarked) [Example 146, 6-Cyclopropyl-3-(pyrimidin-5-ylamino)-pyrazine-2-carboxylic acid [1-methyl-5-(3,3,3-trifluoro-2-hydroxy-propylcarbamoyl)-1H-pyrazol-4-yl]-amide] showed an IC50 of 1.7 nM.
Cn1ncc(NC(=O)c2nc(C3CC3)cnc2Nc2cncnc2)c1C(=O)NC1CCN(C(=O)OC(C)(C)C)C1 (centres unmarked) [Example 236, 3-[(4-{[6-Cyclopropyl-3-(pyrimidin-5-ylamino)-pyrazine-2-carbonyl]-amino}-2-methyl-2H-pyrazole-3-carbonyl)-amino]-pyrrolidine-1-carboxylic acid tert-butyl ester] showed an IC50 of 6.8 nM.
For Cn1ncc(NC(=O)c2nc(C3CC3)cnc2Nc2cncnc2)c1C(=O)N1CCC1 [Example 155, 6-Cyclopropyl-3-(pyrimidin-5-ylamino)-pyrazine-2-carboxylic acid [5-(azetidine-1-carbonyl)-1-methyl-1H-pyrazol-4-yl]-amide], the IC50 was 12.7 nM.
In the case of O=C(Nc1cnccc1C(=O)N1CC(F)(F)C1)c1nc(C2CC2)ccc1Nc1cncnc1 [Example 79, 6-Cyclopropyl-3-(pyrimidin-5-ylamino)-pyridine-2-carboxylic acid [4-(3,3-difluoro-azetidine-1-carbonyl)-pyridin-3-yl]-amide], the IC50 is reported as 29.6 nM.
Compound COCCN(C)C(=O)c1ncccc1NC(=O)c1nc(C2CC2)cnc1Nc1cncnc1 [Example 117, 6-Cyclopropyl-3-(pyrimidin-5-ylamino)-pyrazine-2-carboxylic acid {2-[(2-methoxy-ethyl)-methyl-carbamoyl]-pyridin-3-yl}-amide] has an IC50 of 26.8 nM.
For CNC(=O)c1c(NC(=O)c2nc(CC(C)C)ncc2Nc2cncnc2)cnn1C [Example 332, 2-Isobutyl-5-(pyrimidin-5-ylamino)-pyrimidine-4-carboxylic acid (1-methyl-5-methylcarbamoyl-1H-pyrazol-4-yl)-amide], the IC50 was 12.8 nM.
CNC(=O)c1cc(OC)ccc1NC(=O)c1nc(C2CC2)cnc1Nc1cncnc1 [Example 225, 6-Cyclopropyl-3-(pyrimidin-5-ylamino)-pyrazine-2-carboxylic acid (4-methoxy-2-methylcarbamoyl-phenyl)-amide] gave an IC50 of 0.5 nM.
Work on CNC(=O)c1c(NC(=O)c2nc(C3CC3)cnc2Nc2cncnc2)cnn1CC1CCO1 (centres unmarked) [Example 282, 6-Cyclopropyl-3-(pyrimidin-5-ylamino)-pyrazine-2-carboxylic acid (5-methylcarbamoyl-1-oxetan-2-ylmethyl-1H-pyrazol-4-yl)-amide] yielded an IC50 of 2 nM.
In the case of CNC(=O)c1c(NC(=O)c2nc(C3CC3)cnc2Nc2cncnc2)cnn1C(C)C [Example 139, 6-Cyclopropyl-3-(pyrimidin-5-ylamino)-pyrazine-2-carboxylic acid (1-isopropyl-5-methylcarbamoyl-1H-pyrazol-4-yl)-amide], the IC50 is reported as 11.6 nM.
CNC(=O)c1nn(C)cc1NC(=O)c1nc(C2CCOC2)cnc1Nc1cncnc1 (centres unmarked) [Example 102, 3-(Pyrimidin-5-ylamino)-6-(tetrahydro-furan-3-yl)-pyrazine-2-carboxylic acid (1-methyl-3-methylcarbamoyl-1H-pyrazol-4-yl)-amide] showed an IC50 of 16.3 nM.
With CNC(=O)c1nn(CCOC)cc1NC(=O)c1nc(C2CC2)ccc1Nc1cncnc1 [Example 18, 6-Cyclopropyl-3-(pyrimidin-5-ylamino)-pyridine-2-carboxylic acid [1-(2-methoxy-ethyl)-3-methylcarbamoyl-1H-pyrazol-4-yl]-amide] the IC50 was 91 nM.
Compound Cn1cc(NC(=O)c2nc(C3CC3)cnc2Nc2cncnc2)c(C(=O)NCC2CCCO2)n1 (centres unmarked) [Example 109, 6-Cyclopropyl-N-(1-methyl-3-((tetrahydrofuran-2-yl)methylcarbamoyl)-1H-pyrazol-4-yl)-3-(pyrimidin-5-ylamino)pyrazine-2-carboxamide] has an IC50 of 18.9 nM.
Compound CC(C)(O)CNC(=O)c1cc(F)c(F)cc1NC(=O)c1nc(C2CC2)cnc1Nc1cncnc1 [Example 110, 6-Cyclopropyl-3-(pyrimidin-5-ylamino)-pyrazine-2-carboxylic acid [4,5-difluoro-2-(2-hydroxy-2-methyl-propylcarbamoyl)-phenyl]-amide] has an IC50 of 0.6 nM.
Compound CC(C)(O)CNC(=O)c1ccncc1NC(=O)c1nc(C2CC2)ccc1Nc1cncnc1 [Example 70, 6-Cyclopropyl-3-(pyrimidin-5-ylamino)-pyridine-2-carboxylic acid [4-(2-hydroxy-2-methyl-propylcarbamoyl)-pyridin-3-yl]-amide] has an IC50 of 2.1 nM.
Compound CNC(=O)c1cc(C(C)C)ccc1NC(=O)c1nc(C2CC2)cnc1Nc1cncnc1 [Example 208, 6-Cyclopropyl-3-(pyrimidin-5-ylamino)-pyrazine-2-carboxylic acid (4-isopropyl-2-methylcarbamoyl-phenyl)-amide] has an IC50 of 1.3 nM.
Cn1cc(NC(=O)c2nc(C3CC3)ccc2Nc2cncnc2)c(C(N)=O)n1 [Example 3, 6-Cyclopropyl-3-(pyrimidin-5-ylamino)-pyridine-2-carboxylic acid (3-carbamoyl-1-methyl-1H-pyrazol-4-yl)-amide] was tested, and the IC50 was 7.5 nM.
CNC(=O)c1nc(-c2ccccc2)sc1NC(=O)c1nc(C2CC2)ccc1Nc1cncnc1 [Example 64, 6-Cyclopropyl-3-(pyrimidin-5-ylamino)-pyridine-2-carboxylic acid (4-methylcarbamoyl-2-phenyl-thiazol-5-yl)-amide] showed an IC50 of 1110 nM.
With COCC(C)NC(=O)c1nn(C)cc1NC(=O)c1nc(C2CC2)ccc1Nc1cncnc1 (centres unmarked) [Example 41, 6-Cyclopropyl-3-(pyrimidin-5-ylamino)-pyridine-2-carboxylic acid [3-(2-methoxy-1-methyl-ethylcarbamoyl)-1-methyl-1H-pyrazol-4-yl]-amide] the IC50 was 6.9 nM.
CC(C)(O)CNC(=O)c1cccc(F)c1NC(=O)c1nc(C2CC2)cnc1Nc1cncnc1 [Example 293, 6-Cyclopropyl-3-(pyrimidin-5-ylamino)-pyrazine-2-carboxylic acid [2-fluoro-6-(2-hydroxy-2-methyl-propylcarbamoyl)-phenyl]-amide] showed an IC50 of 6 nM.
Work on CCn1ncc(NC(=O)c2nc(C3CC3)cnc2Nc2cncnc2)c1C(=O)NCC(C)(C)O [Example 132, 6-Cyclopropyl-3-(pyrimidin-5-ylamino)-pyrazine-2-carboxylic acid [1-ethyl-5-(2-hydroxy-2-methyl-propylcarbamoyl)-1H-pyrazol-4-yl]-amide] yielded an IC50 of 16.9 nM.
CC(C)N(C)C(=O)c1c(NC(=O)c2nc(C3CC3)cnc2Nc2cncnc2)cnn1C [Example 227, 6-Cyclopropyl-3-(pyrimidin-5-ylamino)-pyrazine-2-carboxylic acid [5-(isopropyl-methyl-carbamoyl)-1-methyl-1H-pyrazol-4-yl]-amide] was tested, and the IC50 was 64.1 nM.
In the case of O=C(Nc1cc(F)ccc1C(=O)N1CCC1)c1nc(C2CC2)cnc1Nc1cncnc1 [Example 302, 6-Cyclopropyl-3-(pyrimidin-5-ylamino)-pyrazine-2-carboxylic acid [2-(azetidine-1-carbonyl)-5-fluoro-phenyl]-amide], the IC50 is reported as 1 nM.
COCCn1cc(NC(=O)c2nc(C3CC3)ccc2Nc2cncnc2)c(C(=O)N(C)C)n1 [Example 4, 6-Cyclopropyl-3-(pyrimidin-5-ylamino)-pyridine-2-carboxylic acid [3-dimethylcarbamoyl-1-(2-methoxy-ethyl)-1H-pyrazol-4-yl]-amide] showed an IC50 of 124 nM.
For CNC(=O)c1c(NC(=O)c2nc(C3CC3)cnc2Nc2cncnc2)cnn1CC1CCCO1 (centres unmarked) [Example 243, 6-Cyclopropyl-3-(pyrimidin-5-ylamino)-pyrazine-2-carboxylic acid [5-methylcarbamoyl-1-(tetrahydro-furan-2-ylmethyl)-1H-pyrazol-4-yl]-amide], the IC50 was 1.4 nM.
CN(C)C(=O)c1cccc(F)c1NC(=O)c1nc(C2CC2)cnc1Nc1cncnc1 [Example 303, 6-Cyclopropyl-3-(pyrimidin-5-ylamino)-pyrazine-2-carboxylic acid (2-dimethylcarbamoyl-6-fluoro-phenyl)-amide] showed an IC50 of 368 nM.
With CNC(=O)c1nnsc1NC(=O)c1nc(C2CC2)ccc1Nc1cncnc1 [Example 54, 6-Cyclopropyl-3-(pyrimidin-5-ylamino)-pyridine-2-carboxylic acid (4-methylcarbamoyl-[1,2,3]thiadiazol-5-yl)-amide] the IC50 was 25 nM.
For CC(C)c1cc(C(=O)N2CCOCC2)c(NC(=O)c2nc(C3CC3)ccc2Nc2cncnc2)s1 [Example 91, 6-Cyclopropyl-3-(pyrimidin-5-ylamino)-pyridine-2-carboxylic acid [5-isopropyl-3-(morpholine-4-carbonyl)-thiophen-2-yl]-amide], the IC50 was 27.5 nM.
Work on O=C(Nc1cnccc1C(=O)N1CCC1)c1nc(C2CC2)ccc1Nc1cncnc1 [Example 67, 6-Cyclopropyl-3-(pyrimidin-5-ylamino)-pyridine-2-carboxylic acid [4-(azetidine-1-carbonyl)-pyridin-3-yl]-amide] yielded an IC50 of 4.2 nM.
